One block for each compound: values may come before it.
Legend:
[1] = rat brain; cited from earlier work
mGluR2 [2] = biological target: mGluR2 (Rattus norvegicus, UniProt P31421); experiment: Pretreatment; assay type: in vivo, Sprague–Dawley rats
mGluR2 [3] = biological target: T1, mGluR2 (Homo sapiens, UniProt Q14416); conditions: mGluR2 NAM; cited from earlier work
[4] = rat; cited from earlier work
Rat plasma stability = assay type: in vitro ADME; conditions: 37 °C, peak area at 60 min vs 0 min
[5] = Rat liver microsome stability; assay type: in vitro ADME, Sprague–Dawley rat; conditions: NADPH, 37 °C, peak area at 60 min vs 0 min
recombinant human Pgp = recombinant human Pgp (Homo sapiens, UniProt P08183); experiment: Pgp-Glo assay; assay type: in vitro ADME; conditions: 100 μM compound; change relative to Na3VO4 samples = Pgp ATPase activity
recombinant human Pgp, sequence (P08183 whole entry): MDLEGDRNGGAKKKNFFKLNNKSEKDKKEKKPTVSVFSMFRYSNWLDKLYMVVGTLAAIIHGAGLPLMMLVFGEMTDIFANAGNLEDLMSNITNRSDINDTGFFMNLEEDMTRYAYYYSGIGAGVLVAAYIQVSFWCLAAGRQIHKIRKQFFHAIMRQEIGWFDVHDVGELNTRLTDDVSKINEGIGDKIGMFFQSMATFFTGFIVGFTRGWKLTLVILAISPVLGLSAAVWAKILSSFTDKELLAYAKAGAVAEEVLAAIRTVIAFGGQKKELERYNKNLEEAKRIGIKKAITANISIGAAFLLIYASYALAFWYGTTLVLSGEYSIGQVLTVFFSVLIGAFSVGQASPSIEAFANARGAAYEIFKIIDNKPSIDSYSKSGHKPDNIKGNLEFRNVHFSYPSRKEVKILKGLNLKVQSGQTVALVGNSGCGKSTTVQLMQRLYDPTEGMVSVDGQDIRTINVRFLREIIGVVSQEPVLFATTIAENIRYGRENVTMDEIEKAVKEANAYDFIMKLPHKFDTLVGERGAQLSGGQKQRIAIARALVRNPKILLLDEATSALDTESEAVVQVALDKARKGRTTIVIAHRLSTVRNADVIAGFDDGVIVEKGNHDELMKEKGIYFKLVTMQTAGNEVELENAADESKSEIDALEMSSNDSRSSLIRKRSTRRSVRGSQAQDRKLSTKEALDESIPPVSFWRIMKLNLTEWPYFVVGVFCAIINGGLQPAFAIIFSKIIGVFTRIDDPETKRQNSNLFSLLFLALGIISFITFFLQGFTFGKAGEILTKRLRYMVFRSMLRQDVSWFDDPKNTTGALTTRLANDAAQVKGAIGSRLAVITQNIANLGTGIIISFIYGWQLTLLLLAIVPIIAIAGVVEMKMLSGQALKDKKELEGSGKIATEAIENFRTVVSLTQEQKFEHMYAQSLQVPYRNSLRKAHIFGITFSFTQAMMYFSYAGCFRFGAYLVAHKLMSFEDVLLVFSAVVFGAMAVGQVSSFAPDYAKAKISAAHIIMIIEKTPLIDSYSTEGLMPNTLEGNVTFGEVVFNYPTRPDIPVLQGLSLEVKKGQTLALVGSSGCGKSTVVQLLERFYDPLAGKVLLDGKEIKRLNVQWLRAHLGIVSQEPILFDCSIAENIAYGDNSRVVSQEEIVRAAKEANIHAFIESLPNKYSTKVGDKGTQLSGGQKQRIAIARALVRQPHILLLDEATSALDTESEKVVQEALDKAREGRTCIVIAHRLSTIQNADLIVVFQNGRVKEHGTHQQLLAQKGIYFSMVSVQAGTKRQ

mGluR2 [6] = biological target: T1, mGluR2
[7] = 0.5 mg/kg iv., 1 min before tracer
[8] = 0.2 mg/kg iv., 1 min before tracer
[9] = 0.2 mg/kg iv., 20 min before tracer

T1 sequence (Q14416 19-872): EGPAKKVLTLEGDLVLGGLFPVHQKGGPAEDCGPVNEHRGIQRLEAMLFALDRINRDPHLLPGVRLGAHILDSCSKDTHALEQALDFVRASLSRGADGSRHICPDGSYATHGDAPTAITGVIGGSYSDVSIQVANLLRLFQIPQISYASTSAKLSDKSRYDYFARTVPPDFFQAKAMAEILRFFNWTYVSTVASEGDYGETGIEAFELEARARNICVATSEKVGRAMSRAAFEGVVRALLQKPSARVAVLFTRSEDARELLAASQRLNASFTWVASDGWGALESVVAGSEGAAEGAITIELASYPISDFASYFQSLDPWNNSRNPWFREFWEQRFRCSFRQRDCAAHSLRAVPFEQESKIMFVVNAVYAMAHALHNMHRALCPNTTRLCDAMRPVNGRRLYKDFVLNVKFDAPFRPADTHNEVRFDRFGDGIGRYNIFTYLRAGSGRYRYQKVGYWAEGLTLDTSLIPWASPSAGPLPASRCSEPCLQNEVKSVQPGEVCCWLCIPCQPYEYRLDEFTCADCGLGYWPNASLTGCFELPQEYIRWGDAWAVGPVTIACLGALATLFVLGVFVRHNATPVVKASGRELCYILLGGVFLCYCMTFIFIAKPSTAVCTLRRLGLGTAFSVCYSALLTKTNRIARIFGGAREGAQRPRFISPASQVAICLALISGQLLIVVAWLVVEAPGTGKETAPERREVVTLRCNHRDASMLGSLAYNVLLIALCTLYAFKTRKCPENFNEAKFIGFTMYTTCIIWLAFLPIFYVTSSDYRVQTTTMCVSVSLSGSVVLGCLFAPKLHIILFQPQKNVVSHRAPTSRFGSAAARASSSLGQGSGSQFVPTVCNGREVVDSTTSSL
mGluR2 (Rattus norvegicus, UniProt P31421), sequence (P31421 19-872): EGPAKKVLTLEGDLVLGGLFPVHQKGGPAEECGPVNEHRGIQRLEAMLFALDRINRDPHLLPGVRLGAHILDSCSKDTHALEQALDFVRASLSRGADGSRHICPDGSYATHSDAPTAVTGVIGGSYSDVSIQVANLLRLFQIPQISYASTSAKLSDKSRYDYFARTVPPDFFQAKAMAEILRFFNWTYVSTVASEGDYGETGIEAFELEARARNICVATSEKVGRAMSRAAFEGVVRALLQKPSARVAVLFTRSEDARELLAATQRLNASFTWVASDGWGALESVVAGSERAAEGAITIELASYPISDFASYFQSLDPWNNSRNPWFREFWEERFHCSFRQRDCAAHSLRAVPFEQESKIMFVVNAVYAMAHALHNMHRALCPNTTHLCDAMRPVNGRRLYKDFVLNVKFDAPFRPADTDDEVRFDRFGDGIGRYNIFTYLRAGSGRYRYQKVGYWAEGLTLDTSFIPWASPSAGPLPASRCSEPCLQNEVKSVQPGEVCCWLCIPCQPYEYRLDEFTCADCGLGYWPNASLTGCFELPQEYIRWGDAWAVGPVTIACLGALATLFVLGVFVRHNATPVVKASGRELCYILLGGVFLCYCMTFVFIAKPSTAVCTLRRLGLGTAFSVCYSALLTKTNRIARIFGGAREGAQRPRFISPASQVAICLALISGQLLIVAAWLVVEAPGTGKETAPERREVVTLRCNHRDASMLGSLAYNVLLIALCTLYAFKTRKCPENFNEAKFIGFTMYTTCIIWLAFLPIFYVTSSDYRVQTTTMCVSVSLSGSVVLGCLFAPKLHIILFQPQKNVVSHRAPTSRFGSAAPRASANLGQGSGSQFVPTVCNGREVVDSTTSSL

decrease of [11C]13 radioactivity accumulation, average across ROIs (mGluR2 [2]; [7]): 22.4 ± 7.3%
decrease of [11C]13 radioactivity accumulation, cortex (highest) (mGluR2 [2]; [7]): 38.5%
decrease of [11C]13 radioactivity accumulation, thalamus (least) (mGluR2 [2]; [7]): 17.1%
decrease of [11C]13 radioactivity accumulation, total average (mGluR2 [2]; 0.5 mg/kg iv., 20 min before tracer): 14.5 ± 1.5%
SMILES: Cn1ccc(COc2cnc(C(N)=O)cc2-c2ccc(F)cc2)n1 [compound 9]
IC50 (mGluR2 [3]): 78 nM
half-life (t1/2) [4]: 20 min
plasma clearance (CLp) [4]: 118 mL/min/kg

plasma stability (Rat plasma stability): 94.5%
luminescence change (p/s) (recombinant human Pgp): 1.53 × 10^7 p/s
SMILES: COc1ccc(-c2cc(C(N)=O)nc3c2CCC(C)(C)O3)c(F)c1 [compound 13, 5-(2-Fluoro-4-methoxyphenyl)-2,2-dimethyl-3,4-dihydro-2H-pyrano[2,3-b]pyridine-7-carboxamide]

decrease of [11C]13 radioactivity accumulation, among ROIs (mGluR2 [2]; [8]): 41.7 ± 1.1%
decrease of [11C]13 radioactivity accumulation, cerebellum (least) (mGluR2 [2]; [8]): 39.6%
decrease of [11C]13 radioactivity accumulation, hypothalamus (highest) (mGluR2 [2]; [8]): 42.6%
decrease of [11C]13 radioactivity accumulation, average (mGluR2 [2]; [9]): 12.7 ± 1.7%
decrease of [11C]13 radioactivity accumulation, cerebellum (highest) (mGluR2 [2]; [9]): 15.2%
decrease of [11C]13 radioactivity accumulation, striatum (lowest) (mGluR2 [2]; [9]): 11.1%
SMILES: N#Cc1cc(C2=Nc3ccc(Br)cc3NC(=O)C2)ccn1 [compound 26]

Further lines, the compound ahead of its results:

SMILES: COc1ccc(-c2cc(C(N)=O)nc3cc(CN4C(=O)CCC4=O)ccc23)c(F)c1 [compound 7]
SUVmax [1]: 0.3

SMILES: CC1(C)CCc2c(-c3ccc(F)cc3F)cc(C(N)=O)nc2O1 [compound 12, 5-(2,4-Difluorophenyl)-2,2-dimethyl-3,4-dihydro-2H-pyrano[2,3-b]pyridine-7-carboxamide]
plasma stability (Rat plasma stability): > 92%
microsome stability [5]: > 92%
luminescence change (p/s) (recombinant human Pgp): 3.07 × 10^7 p/s
agonist activity at mGluR2 (mGluR2 [6]; cells induced with 1 μg/mL tetracycline, no glutamate): no agonist activity was observed
concentration at which potent NAM activity begins (mGluR2 [6]; in the presence of increasing concentrations of L-glutamate): ~30 nM

— paper PMC9434702 (Journal of medicinal chemistry, 2022)
